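Grown in 96-well plates, cells were treated for 48 hours with each compound at five concentrations. Insufficient inhibition: endpoint recorded as highest concentration tested. GI50 is the concentration that inhibits growth by half. TGI is the concentration that stops growth completely.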
Test system: MDA-MB-468 breast
Assay: NCI anticancer screen, dose series, 48 h

Structure (SMILES) | GI50 [nM] | TGI [µM]
Cc1cc(CCl)c(C)cc1CCl | 379 | 1.6
Cc1ccc(S(=O)(=O)c2nc(-c3ccccc3)oc2S(C)(=O)=O)cc1 | 1770 | 3.84
Cc1cc(N/N=C/c2nc(-c3ccc(Cl)cc3)oc2C)c2cc(Br)ccc2n1 | 1600 | 3.63
Cc1ccc2c(n1)C(=O)C(Cl)=C(Nc1ccc(C(=O)OC(C)(C)C)cc1)C2=O | 11100 | 26.7
CCCCCCCCCc1ccc(OCCOCCOCCOCCOCCOCCOCCOCCOCCO)cc1 | 66 | 1.18
C/C(=C(/c1ccccc1)c1ccc(OCC(O)CNCCN2CCOCC2)cc1)c1ccccc1 (stereo unspecified) | 1410 | 2.85
COc1ccc(Nc2nc(Nc3cc(C)[nH]n3)c3cc(OC)c(OC)cc3n2)cc1 | 1010 | 2.53
COc1ccc2[nH]cc(-c3cc(N)n4nc(-c5c[nH]c6ccc(OC)cc56)cc4n3)c2c1 | 1730 | 3.75
COc1ccc(C(=O)c2sc3nc(-c4ccccc4OC)ccc3c2N)cc1OC | 6280 | > 100
Cn1c(=O)n(C)c2cc(CNCCNc3ccnc4cc(Cl)ccc34)ccc21 | 14400 | 32.4
C=C1C(=O)O[C@H]2[C@H]1CC/C(Cn1cc(-c3ccc(N)cc3)nn1)=C\CC[C@@]1(C)O[C@@H]21 | 1770 | 4.21
COc1ccc(-c2nc(-c3nc4cc(Cl)c(F)cc4[nH]3)c3ccccn23)cc1 | 2930 | 30.3
COc1ccc2c(c1)C(=O)/C(=C/c1cccc(OCC(=O)Nc3nc(C)c(C)s3)c1)O2 |  | 0.0176
FC(F)(F)c1ccc(-c2nn3ncccc3c2-c2ccnc(Nc3ccc4c(c3)OCCO4)n2)cc1 | 4520 | 17.6
CCSc1ccc([C@@H]2[C@@H](O)C(=O)N2c2cc(OC)c(OC)c(OC)c2)cc1 | < 10 | 57.6
C=C1C(=O)O[C@H]2[C@H]1CC/C(COC(=O)N[C@H]1C[C@H](O[C@H]3C[C@](O)(C(=O)CO)Cc4c(O)c5c(c(O)c43)C(=O)c3c(OC)cccc3C5=O)O[C@@H](C)[C@H]1O)=C\CC[C@@]1(C)O[C@@H]21 | 793 | 2.04
COc1cc([C@@H]2c3cc4c(cc3[C@H](OC(C)=O)[C@H]3COC(=O)[C@@H]23)OCO4)cc(OC)c1OC | 293 | 5.45
CC(C)(C)[Si](C)(C)OC1[C@@H](CNC(N)=O)O[C@@H](n2cnc3c(NC(=O)Nc4ccccc4)ncnc32)[C@H]1O[Si](C)(C)C(C)(C)C (stereo partly specified) | 2150 | 8.23
COc1cc(OC)c2sc(-c3ccc(-n4cncc4-c4ccc(OC)c(OC)c4)cc3)nc2c1 | 4150 | > 100
CCCN(CCC)c1ccc(C=O)c(Cl)c1 | 53.8 | 0.243
CN(C)CCCOc1cccc(NC2=C(Cl)C(=O)C(Nc3cccc(OCCCN(C)C)c3)=C(Cl)C2=O)c1 | 212 | 0.458
COc1cc(C2=NN(C(C)=O)C(c3cc(OC)c(OC)c(OC)c3)C2)ccc1O (stereo unspecified) | 265 | 3.61
CCOP(=O)(OCC)OC[C@]12CCC(C)(C)C=C1[C@H]1CC[C@@H]3[C@@]4(C)CC[C@H](OP(=O)(OCC)OCC)C(C)(C)[C@@H]4CC[C@@]3(C)[C@]1(C)CC2 | 1300 | 2.93

Structure (SMILES) | GI50 [nM] | TGI [µM]
Cc1ccc2sc3c(c2c1)OC(N)=C(C#N)C3c1cccc(F)c1 (stereo unspecified) | 225 | 0.724
CCOC(=O)c1ccc(NC(=O)NC2=NCCS2)cc1 | 623 | > 26.4
COc1cccc(CNc2ncnc3c2ncn3C2OC(CO)C(O)C2O)c1O (stereo unspecified) | 137 | 2.09
c1ccc(-c2nc3n(c2-c2ccc4c(c2)OCO4)CCC3)nc1 | 5810 | 17
COc1ccc(C2=NC(=O)NC2c2ccc(OC)cc2)cc1 (stereo unspecified) | 4710 | 43.7
Nc1c(C(=O)c2cccc(C#CCN3CCCCC3)c2)cnn1-c1ccc(F)cc1 | 7720 | > 25
CCOC(=O)c1sc(-c2ccc(OS(=O)(=O)C[C@]34CCC(CC3=O)C4(C)C)c(C=O)c2)nc1C | 966 | 3.3
COc1cc(F)ccc1-c1cc(Nc2cc(CS(C)(=N)=O)ccn2)ncc1F (stereo unspecified) | 91.5 | 0.445
N=c1ccc2nc3ccc(N)cc3sc-2c1 | 3020 | 8.12
Cc1cc(NCc2cc(Nc3ccnc4cc(Cl)ccc34)ccc2F)nc(N2CCOCC2)n1 | 1940 | 5.64
O=C(CC1(O)C(=O)Nc2ccc(F)cc21)c1ccc(C(=O)NCC2CCC3(CC2)OOC2(CCCCC2)OO3)cc1 (stereo unspecified) | 4540 | 21.6
COc1cc(OCc2cccc(-c3ccccc3)c2C)cc(OC)c1CN1CCCCC1C(=O)NCCOCCOCCN (stereo unspecified) | 1700 | 3.43
CCn1cc(/C=C2\Oc3cc(OCC#N)ccc3C2=O)c2cc(OC)ccc21 | 802 | 13.7
CN(Cc1ccc(F)cc1)c1ccc(CO)c(Cl)c1 | 58 | 0.207
Clc1ccc(/C=C/c2ccc3ccccc3n2)cc1 | 419 | 2.95
Nc1nc(N)c2cc(Sc3ccc4ccccc4c3)ccc2n1 | 1100 | 2.39
C=C1C(=O)O[C@H]2[C@H]1CC/C(COC(=O)NCc1ccc(Cn3c(=O)sn(CCCCC)c3=O)cc1)=C\CC[C@@]1(C)O[C@@H]21 | 1190 | 2.64
O=C(Nc1cccc2[nH]c(C(F)(F)F)nc12)c1cc(Cl)ccc1Cl | 2520 | 7.74
COc1ccc(-c2cnnn2-c2nonc2-n2cccc2)cc1OC | 2000 | 7.9
CCCC1(CN2c3ccccc3Sc3ccc(Cl)cc32)CCN(CC)C1 (stereo unspecified) | 1600 | 3.14
Cc1cn(-c2cccc(NC(=O)c3ccc(C)c(Nc4nccc(-c5cccnc5)n4)c3)c2)cn1 | 1610 | 3.18
CCN1[C@@H](C(=O)NC23CCC(C(=O)O)(CC2)CC3)[C@H](c2cccc(Cl)c2F)[C@]2(C(=O)Nc3cc(Cl)ccc32)C12CCCCC2 | 2180 | 6.68
CC(=O)c1ccc2c(c1)N(CCCN1CCN(CCO)CC1)c1ccccc1S2 | 1670 | 3.21

Source: PubChem BioAssay (NCI)
